Test results as given in ChEMBL document CHEMBL1201862, “PubChem BioAssay data set” (2004).
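All cell lines were grown in 96-well plates and treated with compound for 48 hours. GI50 marks 50% less growth.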 Active and inactive are the calls of the source. Rule as the data show it: active = GI50 up to about 1.1 µM and inactive = higher.

Assays:
Test in all cases: NCI tumour cell line growth inhibition, 48 h
[1] = test system: M14
[2] = test system: DU-145
[3] = test system: MDA-MB-231
[4] = test system: MDA-N
[5] = test system: Hs-578T
[6] = test system: NCI-H226
[7] = test system: A498
[8] = test system: MCF7
[9] = test system: T47D
[10] = test system: NCI/ADR-RES
[11] = test system: BT-549
[12] = test system: Malme-3M
[13] = test system: SR
[14] = test system: OVCAR-4
[15] = test system: MDA-MB-435
[16] = test system: HOP-92
[17] = test system: HCC 2998
[18] = test system: NCI-H522
[19] = test system: SNB-78

Row | SMILES | GI50 [1] | GI50 [2] | GI50 [3] | GI50 [4] | GI50 [5] | GI50 [6] | GI50 [7] | GI50 [8] | GI50 [9] | GI50 [10] | GI50 [11] | GI50 [12] | GI50 [13] | GI50 [14] | GI50 [15] | GI50 [16] | GI50 [17] | GI50 [18] | GI50 [19]
1 | CCOC(=O)c1c(N=C(S)Nc2ccccc2)sc2c1CCN(C)C2 | > 100 µM (inactive) | > 100 µM (inactive) | > 100 µM (inactive) | > 100 µM (inactive) | > 100 µM (inactive) | > 100 µM (inactive) | > 100 µM (inactive) | > 100 µM (inactive) | > 100 µM (inactive) | > 100 µM (inactive) | > 100 µM (inactive) |  |  |  |  |  |  |  | 
2 | COc1ccc(-c2c3c(nc4nc(SCCc5ccccc5)nc(N)c24)CCCC3)cc1OC | > 100 µM (inactive) | > 100 µM (inactive) | > 100 µM (inactive) | > 100 µM (inactive) | 27 µM (inactive) |  |  | > 100 µM (inactive) | > 100 µM (inactive) | > 100 µM (inactive) | > 100 µM (inactive) | > 100 µM (inactive) | > 100 µM (inactive) | 75.7 µM (inactive) | > 100 µM (inactive) |  |  |  | 
3 | O=C(N/N=C/c1ccccc1)c1c(F)c(F)c(F)c(F)c1F | 56.8 µM (inactive) | > 100 µM (inactive) | > 100 µM (inactive) | 28.8 µM (inactive) | > 100 µM (inactive) | > 100 µM (inactive) | > 100 µM (inactive) |  | > 100 µM (inactive) | > 100 µM (inactive) | > 100 µM (inactive) | > 100 µM (inactive) | > 100 µM (inactive) | > 100 µM (inactive) | 37.8 µM (inactive) | 79.6 µM (inactive) | > 100 µM (inactive) | 23.3 µM (inactive) | 
4 | C[C@H](O)C(=O)SC[C@H](NC(=O)CC[C@@H](N)C(=O)O)C(=O)NCC(=O)O | > 100 µM (inactive) |  |  |  |  | > 100 µM (inactive) |  |  |  |  |  | > 100 µM (inactive) | > 100 µM (inactive) | > 100 µM (inactive) |  | > 100 µM (inactive) | > 100 µM (inactive) | > 100 µM (inactive) | 
5 | N#CCc1c(F)c(F)c(F)c(F)c1F | > 100 µM (inactive) | > 100 µM (inactive) | > 100 µM (inactive) | > 100 µM (inactive) | > 100 µM (inactive) | > 100 µM (inactive) | > 100 µM (inactive) | > 100 µM (inactive) | > 100 µM (inactive) | > 100 µM (inactive) | > 100 µM (inactive) | > 100 µM (inactive) | > 100 µM (inactive) |  | > 100 µM (inactive) |  | > 100 µM (inactive) | > 100 µM (inactive) | 
6 | CC[C@]12C=CCN3CC[C@@]4(c5cc(Br)c(OC)c([N+](=O)[O-])c5N(C)[C@H]4[C@@](O)(C(=O)OC)[C@@H]1OC(C)=O)[C@@H]32 | 55.7 µM (inactive) | 98.2 µM (inactive) | > 100 µM (inactive) | 37.2 µM (inactive) | 36.1 µM (inactive) | 21.8 µM (inactive) | 44.5 µM (inactive) | 37.4 µM (inactive) | 50.4 µM (inactive) | 48.1 µM (inactive) | > 100 µM (inactive) | 89.5 µM (inactive) | 25.7 µM (inactive) | 52.8 µM (inactive) | 35.1 µM (inactive) |  |  |  | 
7 | CCOC(=O)NC(OCc1ccccc1)(C(=O)OC)C(F)(F)F (stereo not drawn) | > 100 µM (inactive) | > 100 µM (inactive) | > 100 µM (inactive) | > 100 µM (inactive) | > 100 µM (inactive) |  |  | > 100 µM (inactive) | > 100 µM (inactive) | > 100 µM (inactive) | > 100 µM (inactive) |  | > 100 µM (inactive) | > 100 µM (inactive) | > 100 µM (inactive) | > 100 µM (inactive) | > 100 µM (inactive) | > 100 µM (inactive) | 
8 | CC1CC/C(=C\c2ccc(Cl)cc2)C(=O)/C1=C\c1ccc(Cl)cc1 (stereo not drawn) | 24 µM (inactive) | 49.2 µM (inactive) | 28.4 µM (inactive) | 51.2 µM (inactive) | 36.8 µM (inactive) |  | 1.63 µM (inactive) | 36.2 µM (inactive) | 58.9 µM (inactive) |  | 29.9 µM (inactive) |  |  |  | 36.8 µM (inactive) | > 100 µM (inactive) |  |  | 
9 | COc1ccc(/N=C(\C)c2ccncc2)cc1 | > 100 µM (inactive) | 83 µM (inactive) | > 100 µM (inactive) | > 100 µM (inactive) | > 100 µM (inactive) | 93.3 µM (inactive) | 40.9 µM (inactive) | 66.7 µM (inactive) | > 100 µM (inactive) | > 100 µM (inactive) | 64 µM (inactive) | > 100 µM (inactive) |  | > 100 µM (inactive) | 26.9 µM (inactive) | > 100 µM (inactive) | > 100 µM (inactive) | > 100 µM (inactive) | 
10 | O=C1C[C@H](Sc2ccccc2)C2(OCCO2)[C@@H](Sc2ccccc2)C1 | 1.78 µM (inactive) | 3.19 µM (inactive) | 1.64 µM (inactive) | 2.2 µM (inactive) | 1.77 µM (inactive) | 2.31 µM (inactive) | 15.1 µM (inactive) | 1.17 µM (inactive) | 5.13 µM (inactive) | 1.88 µM (inactive) | 1.97 µM (inactive) | 1.81 µM (inactive) | 0.322 µM (active) | 5.07 µM (inactive) | 2.25 µM (inactive) | 1.9 µM (inactive) | 2.58 µM (inactive) | 0.316 µM (active) | 
11 | Cc1ccc(S(=O)(=O)N2c3ccccc3[C@H]3CCc4c([nH]c5ccccc45)[C@H]32)cc1 | > 100 µM (inactive) | > 100 µM (inactive) | 0.65 µM (active) | 30 µM (inactive) |  | 15.3 µM (inactive) |  | > 100 µM (inactive) | > 100 µM (inactive) | > 100 µM (inactive) | > 100 µM (inactive) |  |  | 0.942 µM (active) | 48.3 µM (inactive) | > 100 µM (inactive) | > 100 µM (inactive) |  | 
12 | CCCCCCCSc1nc2c(C(=O)OCC)ncn2c2ccccc12 | > 100 µM (inactive) |  |  |  |  | > 100 µM (inactive) |  |  |  |  |  | > 100 µM (inactive) | > 100 µM (inactive) |  |  | 25.1 µM (inactive) | > 100 µM (inactive) |  | 
13 | Cc1ccc(/N=N/C(=N\NC(=O)c2ccc(C)cc2)c2ccc(N(CCC#N)CCC#N)cc2C)cc1 | 30 µM (inactive) | 57.8 µM (inactive) | 57.9 µM (inactive) | 29.7 µM (inactive) | 16.4 µM (inactive) | 20.7 µM (inactive) | > 100 µM (inactive) | 31 µM (inactive) | 49.7 µM (inactive) | 38.9 µM (inactive) |  |  | 18.7 µM (inactive) | 47.1 µM (inactive) | 21 µM (inactive) | 51.3 µM (inactive) | 50.2 µM (inactive) |  | 
14 | O=C(O)CN(CC(=O)O)C(C(=O)O)c1ccccc1 (stereo not drawn) | > 100 µM (inactive) | > 100 µM (inactive) | > 100 µM (inactive) | > 100 µM (inactive) | > 100 µM (inactive) | > 100 µM (inactive) | > 100 µM (inactive) | > 100 µM (inactive) | > 100 µM (inactive) | > 100 µM (inactive) | > 100 µM (inactive) | > 100 µM (inactive) | > 100 µM (inactive) | > 100 µM (inactive) | > 100 µM (inactive) | > 100 µM (inactive) | > 100 µM (inactive) | > 100 µM (inactive) | 
15 | O=C1c2ccccc2C(=O)N1/N=C1/SC(=N\c2ccccc2)/C(=N/c2ccccc2)N1c1ccccc1 | 77.1 µM (inactive) | > 100 µM (inactive) | > 10 µM (inactive) |  | > 22.9 µM (inactive) | > 71.3 µM (inactive) | 19.7 µM (inactive) | > 68.1 µM (inactive) | > 100 µM (inactive) | > 100 µM (inactive) | > 48.4 µM (inactive) | > 47.3 µM (inactive) | > 31.6 µM (inactive) | > 100 µM (inactive) | > 100 µM (inactive) | > 27.9 µM (inactive) | > 48.5 µM (inactive) | 97.7 µM (inactive) | 
16 | CCOC(=O)c1cc(C2CCN(Cc3ccccc3)C2=S)c(C(=O)C=[N+]=[N-])[nH]1 (stereo not drawn) | 20.1 µM (inactive) | 33.4 µM (inactive) | 33.1 µM (inactive) | 21.1 µM (inactive) | 45.6 µM (inactive) |  | 77.4 µM (inactive) | 14.6 µM (inactive) |  | 24.5 µM (inactive) | 26.9 µM (inactive) | 28.7 µM (inactive) |  | 54.7 µM (inactive) | 40.1 µM (inactive) | 21.3 µM (inactive) | 49.7 µM (inactive) | 20.7 µM (inactive) | 
17 | Cc1ccc(NC(=O)C(Cc2c[nH]c3ccccc23)NC(=O)Oc2ccccc2)cc1C (stereo not drawn) | 74.8 µM (inactive) | > 100 µM (inactive) | > 100 µM (inactive) | 55.8 µM (inactive) | 38.3 µM (inactive) | 73.1 µM (inactive) | 27.4 µM (inactive) | 41.2 µM (inactive) | 39.5 µM (inactive) | 83.8 µM (inactive) | 30.6 µM (inactive) | 14.3 µM (inactive) |  | 44.3 µM (inactive) | 65.2 µM (inactive) | 27.7 µM (inactive) |  | > 100 µM (inactive) | 
18 | Fc1ccc2c(c1)SC1=Nc3sc4cc(F)ccc4[n+]3CN12 | 25.8 µM (inactive) | 26.7 µM (inactive) | 13.9 µM (inactive) |  | 9.98 µM (inactive) | 21.3 µM (inactive) | 12.7 µM (inactive) | 21.6 µM (inactive) | 13.7 µM (inactive) | 18.2 µM (inactive) | 14.8 µM (inactive) | 18.7 µM (inactive) |  | 14.5 µM (inactive) | 39.6 µM (inactive) | 17.1 µM (inactive) | 10.5 µM (inactive) | 12.1 µM (inactive) | 
19 | CCO[C@]12C[C@H](OC)[C@@]3(O)CC(C1[C@H]3O)C13C4C2[C@H](OC)C1[C@](COC)(CN4CC)[C@H](O)C[C@@H]3OC (stereo partly drawn) | > 100 µM (inactive) |  |  |  |  | > 100 µM (inactive) |  |  |  |  |  |  | > 100 µM (inactive) | > 100 µM (inactive) |  |  | > 100 µM (inactive) |  | > 100 µM (inactive)
